Laboratory results taken from PubChem BioAssay AID192 (DTP/NCI, 2004).
Several values for one entry are separate records, joined by “and”; a condition that tells them apart may be missing. Equal entries are not always repeated. Inconclusive results and toxic doses are left out.

System: BDF1 mice, B16 melanoma ip, median survival T/C
Experiment: NCI In Vivo Anticancer Drug Screen. Data for tumor model B16 Melanoma (intraperitoneal) in B6D2F1 (BDF1) mice
Conditions: endpoint: median survival time, higher = longer survival
Summary of the method: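 The ratio T/C compares compound-treated mice with vehicle-treated controls, using survival or tumor size as the endpoint in a transplantable tumor model.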

[1] = dose: 75.0 mg/kg/injection, schedule: Q01DX009 (ip), vehicle: Klucel (hydroxypropylcellulose) (HPC)
[2] = dose: 150.0 mg/kg/injection, schedule: Q01DX009 (ip), vehicle: Klucel (hydroxypropylcellulose) (HPC)
[3] = dose: 300.0 mg/kg/injection, schedule: Q01DX009 (ip), vehicle: Klucel (hydroxypropylcellulose) (HPC)
[4] = dose: 12.5 mg/kg/injection, schedule: Q01DX009 (ip), vehicle: Klucel (hydroxypropylcellulose) (HPC)
[5] = dose: 6.25 mg/kg/injection, schedule: Q01DX009 (ip), vehicle: saline
[6] = dose: 12.5 mg/kg/injection, schedule: Q01DX009 (ip), vehicle: saline
[7] = dose: 50.0 mg/kg/injection, schedule: Q01DX009 (ip), vehicle: saline
[8] = dose: 50.0 mg/kg/injection, schedule: Q01DX009 (ip), vehicle: saline with Tween-80
[9] = dose: 100.0 mg/kg/injection, schedule: Q01DX009 (ip), vehicle: saline with Tween-80
[10] = dose: 200.0 mg/kg/injection, schedule: Q01DX009 (ip), vehicle: saline with Tween-80
[11] = dose: 400.0 mg/kg/injection, schedule: Q01DX009 (ip), vehicle: saline with Tween-80
[12] = dose: 100.0 mg/kg/injection, schedule: Q04DX003 (ip), vehicle: Klucel (hydroxypropylcellulose) (HPC)
[13] = dose: 25.0 mg/kg/injection, schedule: Q01DX009 (ip), vehicle: saline

Structure (SMILES): Cc1ccc(NC(=O)c2ccc(Cl)cc2)cc1Cl
- T/C [1]: 100 % of control
- T/C [2]: 115 % of control
- T/C [3]: 88 % of control

Structure (SMILES): S=c1nc[nH]c2nc[nH]c12
- T/C (dose: 2.5 mg/kg/injection, schedule: Q01DX009 (ip), vehicle: other): 120 % of control
- T/C (dose: 2.5 mg/kg/injection, schedule: Q01DX009 (ip), vehicle: saline): 107 % of control
- T/C (dose: 5.0 mg/kg/injection, schedule: Q01DX009 (ip), vehicle: other): 112 % of control
- T/C (dose: 5.0 mg/kg/injection, schedule: Q01DX009 (ip), vehicle: saline): 110 % of control
- T/C (dose: 7.5 mg/kg/injection, schedule: Q01DX009 (ip), vehicle: Klucel (hydroxypropylcellulose) (HPC)): 93 % of control
- T/C (dose: 9.38 mg/kg/injection, schedule: Q01DX009 (ip), vehicle: alkali diluted with water): 94 % of control
- T/C (dose: 10.0 mg/kg/injection, schedule: Q01DX009 (ip), vehicle: saline): 110 % of control
- T/C (dose: 11.3 mg/kg/injection, schedule: Q01DX009 (ip), vehicle: other): 90 % of control
- T/C [4]: 110 % of control
- T/C (dose: 18.8 mg/kg/injection, schedule: Q01DX009 (ip), vehicle: alkali diluted with water): 100 % of control
- T/C (dose: 20.0 mg/kg/injection, schedule: Q01DX009 (ip), vehicle: saline): 160 % of control
- T/C (dose: 22.5 mg/kg/injection, schedule: Q01DX009 (ip), vehicle: other): 95 % of control
- T/C (dose: 25.0 mg/kg/injection, schedule: Q01DX009 (ip), vehicle: acid diluted with saline): 87 % of control
- T/C (dose: 30.0 mg/kg/injection, schedule: Q01DX009 (ip), vehicle: saline): 105 % of control
- T/C (dose: 37.5 mg/kg/injection, schedule: Q01DX009 (ip), vehicle: alkali diluted with water): 88 % of control
- T/C (dose: 40.0 mg/kg/injection, schedule: Q01DX009 (ip), vehicle: saline): 110 % of control
- T/C (dose: 75.0 mg/kg/injection, schedule: Q01DX009 (ip), vehicle: alkali diluted with water): 84 % of control
- T/C (dose: 78.0 mg/kg/injection, schedule: Q04DX003 (ip), vehicle: alkali diluted with water): 96 % of control
- T/C (dose: 120.0 mg/kg/injection, schedule: Q04DX003 (ip), vehicle: alkali diluted with water): 98 % of control
- T/C (dose: 150.0 mg/kg/injection, schedule: Q01DX009 (ip), vehicle: alkali diluted with water): 46 % of control
- T/C (dose: 200.0 mg/kg/injection, schedule: Q04DX003 (ip), vehicle: alkali diluted with water): 84 % of control
- T/C (dose: 333.0 mg/kg/injection, schedule: Q04DX003 (ip), vehicle: alkali diluted with water): 81 % of control

Structure (SMILES): Cc1c(Cl)cccc1NC(=O)c1cccc([N+](=O)[O-])c1
- T/C [1]: 95 % of control
- T/C [2]: 87 % of control
- T/C [3]: 91 % of control

Structure (SMILES): NC(CSC(c1ccccc1)(c1ccccc1)c1ccccc1)C(=O)O (configuration not stated)
- T/C (dose: 3.13 mg/kg/injection, schedule: Q01DX009 (ip), vehicle: saline): 109 % of control
- T/C [5]: 118 % of control
- T/C [6]: 120 % of control
- T/C [7]: 150 % of control

Structure (SMILES): CCCCCCCCSC1=C(Cl)C(=O)C(OC)=C(OC)C1=O
- T/C (dose: 3.13 mg/kg/injection, schedule: Q01DX009 (ip), vehicle: saline with Tween-80): 88 % of control

Structure (SMILES): Cc1cc(C)c(CCl)cc1CCl
- T/C (dose: 10.0 mg/kg/injection, schedule: Q01DX009 (ip), vehicle: saline with Tween-80): 110 % of control
- T/C (dose: 20.0 mg/kg/injection, schedule: Q01DX009 (ip), vehicle: saline with Tween-80): 95 % of control
- T/C (dose: 20.0 mg/kg/injection, schedule: Q04DX003 (ip), vehicle: saline with Tween-80): 100 % of control
- T/C (dose: 40.0 mg/kg/injection, schedule: Q01DX009 (ip), vehicle: saline with Tween-80): 102 % of control
- T/C (dose: 40.0 mg/kg/injection, schedule: Q04DX003 (ip), vehicle: saline with Tween-80): 100 % of control

Structure (SMILES): Cc1nn(CCO)c(C)c1N=[N+]([O-])c1c(C)nn(CCO)c1C
- T/C (dose: 15.0 mg/kg/injection, schedule: Q01DX011 (ip), vehicle: saline with Tween-80): 88 % of control

Structure (SMILES): COc1cc(C(N)=O)cc(OC)c1O
- T/C (dose: 100.0 mg/kg/injection, schedule: Q01DX009 (ip), vehicle: saline): 115 % of control
- T/C (dose: 200.0 mg/kg/injection, schedule: Q01DX009 (ip), vehicle: saline): 110 % of control
- T/C (dose: 400.0 mg/kg/injection, schedule: Q01DX009 (ip), vehicle: saline): 118 % of control

Structure (SMILES): CC[CH2][Pb]([CH2]CC)([CH2]CC)[O]C(=O)C(F)(F)F
- T/C (dose: 0.39 mg/kg/injection, schedule: Q01DX009 (ip), vehicle: saline with Tween-80): 93 % of control
- T/C (dose: 0.78 mg/kg/injection, schedule: Q01DX009 (ip), vehicle: saline with Tween-80): 111 % of control
- T/C (dose: 1.5 mg/kg/injection, schedule: Q01DX009 (ip), vehicle: saline with Tween-80): 104 % of control
- T/C (dose: 3.0 mg/kg/injection, schedule: Q01DX009 (ip), vehicle: saline with Tween-80): 98 % of control
- T/C (dose: 3.12 mg/kg/injection, schedule: Q01DX009 (ip), vehicle: saline with Tween-80): 86 % of control

Structure (SMILES): O=[N+]([O-])c1ccc2c(c1)sc1cc([N+](=O)[O-])c(Br)cc12
- T/C [8]: 102 % of control
- T/C [9]: 102 % of control
- T/C [10]: 100 % of control
- T/C [11]: 90 % of control

Structure (SMILES): CC(SC(C)c1ccccc1)c1ccccc1 (configuration not stated)
- T/C [9]: 101 % of control
- T/C [10]: 99 % of control
- T/C [11]: 88 % of control

Structure (SMILES): COc1cc2c(ccc3c4cc(OC)c(OC)cc4c[n+](C)c23)cc1O
- T/C [8]: 108 % of control
- T/C [9]: 97 % of control
- T/C [10]: 100 % of control

Structure (SMILES): Cc1cccc(-c2nc3cc(Cl)ccc3c(=O)o2)c1
- T/C (dose: 25.0 mg/kg/injection, schedule: Q01DX009 (ip), vehicle: Klucel (hydroxypropylcellulose) (HPC)): 100 % of control
- T/C (dose: 25.0 mg/kg/injection, schedule: Q04DX003 (ip), vehicle: Klucel (hydroxypropylcellulose) (HPC)): 103 % of control
- T/C (dose: 50.0 mg/kg/injection, schedule: Q01DX009 (ip), vehicle: Klucel (hydroxypropylcellulose) (HPC)): 107 % of control
- T/C (dose: 50.0 mg/kg/injection, schedule: Q04DX003 (ip), vehicle: Klucel (hydroxypropylcellulose) (HPC)): 103 % of control
- T/C (dose: 100.0 mg/kg/injection, schedule: Q01DX009 (ip), vehicle: Klucel (hydroxypropylcellulose) (HPC)): 100 % of control
- T/C [12]: 106 % of control

Structure (SMILES): N#CC(C#N)=C/C=C/c1cccc([N+](=O)[O-])c1
- T/C (dose: 3.12 mg/kg/injection, schedule: Q01DX009 (ip), vehicle: Klucel (hydroxypropylcellulose) (HPC)): 110 % of control
- T/C (dose: 6.25 mg/kg/injection, schedule: Q01DX009 (ip), vehicle: Klucel (hydroxypropylcellulose) (HPC)): 104 % of control
- T/C [4]: 115 % of control

Structure (SMILES): CC(C)=CC(=O)OCC[N+](C)(C)C
- T/C (dose: 1.56 mg/kg/injection, schedule: Q01DX009 (ip), vehicle: saline): 114 % of control
- T/C (dose: 3.12 mg/kg/injection, schedule: Q01DX009 (ip), vehicle: saline): 112 % of control
- T/C [5]: 104 % of control
- T/C [6]: 102 % of control
- T/C [13]: 101 % of control

Structure (SMILES): C=CCOCC(O)CNCCCOC (configuration not stated)
- T/C [5]: 102 % of control
- T/C [6]: 98 % of control
- T/C [13]: 98 % of control

Structure (SMILES): COC(=O)C1C2CC(C3OC23)C1C(=O)OC (configuration not stated)
- T/C [12]: 94 % of control
- T/C (dose: 200.0 mg/kg/injection, schedule: Q04DX003 (ip), vehicle: Klucel (hydroxypropylcellulose) (HPC)): 100 % of control
- T/C (dose: 400.0 mg/kg/injection, schedule: Q04DX003 (ip), vehicle: Klucel (hydroxypropylcellulose) (HPC)): 96 % of control

Structure (SMILES): Cc1ccc([N+](=O)[O-])cc1NC(=O)Oc1ccc(Cl)cc1
- T/C (dose: 25.0 mg/kg/injection, schedule: Q04DX009 (ip), vehicle: Klucel (hydroxypropylcellulose) (HPC)): 94 % of control
- T/C (dose: 50.0 mg/kg/injection, schedule: Q04DX009 (ip), vehicle: Klucel (hydroxypropylcellulose) (HPC)): 104 % of control
- T/C (dose: 100.0 mg/kg/injection, schedule: Q04DX003 (ip), vehicle: carboxymethylcellulose (CMC)): 93 % of control
- T/C (dose: 100.0 mg/kg/injection, schedule: Q04DX009 (ip), vehicle: Klucel (hydroxypropylcellulose) (HPC)): 96 % of control
- T/C (dose: 400.0 mg/kg/injection, schedule: Q04DX003 (ip), vehicle: carboxymethylcellulose (CMC)): 86 % of control

Structure (SMILES): CCOC(=O)C(C=O)(NC(=O)c1ccccc1)OCC (configuration not stated)
- T/C [9]: 102 % of control
- T/C [10]: 97 % of control
- T/C [11]: 100 % of control

Structure (SMILES): CCC1(CC)CCC(Br)C(Br)C1 (configuration not stated)
- T/C [9]: 95 % of control
- T/C [10]: 105 % of control
- T/C [11]: 102 % of control

Structure (SMILES): CCN(CC)CCCC(C)Nc1c2ccc(C)cc2nc2ccc(OC)cc12 (configuration not stated)
- T/C [5]: 89 % of control
- T/C [6]: 99 % of control and 114 % of control
- T/C [13]: 124 % of control
- T/C [7]: 122 % of control and 123 % of control
